The results in this text go back to PubChem BioAssay (NCI).

Molecules are shown by their SMILES.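 Following 48 hours of exposure in 96-well plates, responses at five concentrations were used to interpolate endpoints linearly. GI50 marks 50% less growth. At the TGI there is no net growth.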

Test systems include RPMI-8226 leukemia; UACC-62 melanoma; MALME-3M melanoma; HCC-2998 colon; LOX IMVI melanoma; U251 CNS; SK-MEL-5 melanoma; HCT-116 colon; SN12C renal; 786-0 renal.
Test in all cases: DTP human tumour cell line panel, 48 h

Usually GI50 stands for the concentration that inhibits growth by half. As a reminder, the TGI is the concentration at which net growth stops. Regarding `CCOC(=O)c1cc(NS(=O)(=O)c2ccccc2)cc(C(=O)OCC)c1`, the GI50 with RPMI-8226 leukemia, in the experiment on UACC-62 melanoma, in the experiment on MALME-3M melanoma, with HCC-2998 colon, in the experiment with LOX IMVI melanoma and in the experiment with U251 CNS was greater than 100000 nM in each case. For the same compound, the GI50 with SK-MEL-5 melanoma, with HCT-116 colon, in the experiment with SN12C renal and in the experiment with 786-0 renal was greater than 100000 nM throughout. Moreover, the TGI in the experiment on RPMI-8226 leukemia, in the experiment with UACC-62 melanoma, in the experiment on MALME-3M melanoma, with HCC-2998 colon, in the experiment with LOX IMVI melanoma and in the experiment with U251 CNS was greater than 100 µM throughout. For the same compound, the TGI in the experiment with SK-MEL-5 melanoma, with HCT-116 colon, in the experiment with SN12C renal and in the experiment on 786-0 renal was greater than 100 µM in each case.
`Cn1cccc1-c1cc(-c2cccs2)nc(N)c1C#N`: the GI50 is greater than 100000 nM in the experiment with RPMI-8226 leukemia; 87000 nM in the experiment on UACC-62 melanoma; greater than 100000 nM in the experiment on MALME-3M melanoma; greater than 100000 nM in the experiment with HCC-2998 colon; greater than 100000 nM in the experiment on LOX IMVI melanoma; greater than 100000 nM in the experiment with U251 CNS. The GI50 in the experiment on SK-MEL-5 melanoma, in the experiment on HCT-116 colon, in the experiment with SN12C renal and with 786-0 renal was greater than 100000 nM each time. For the same compound, the TGI in the experiment on RPMI-8226 leukemia, with UACC-62 melanoma, in the experiment on MALME-3M melanoma, in the experiment with HCC-2998 colon, in the experiment on LOX IMVI melanoma and with U251 CNS was greater than 100 µM each time. Besides, the TGI with SK-MEL-5 melanoma, in the experiment on HCT-116 colon, with SN12C renal and in the experiment on 786-0 renal was greater than 100 µM in each case.
In the case of `COc1ccc2c(c1)/C(=C\c1c(C)nc3sccn13)C(=O)N2`, the TGI was greater than 26.4 µM in the experiment on RPMI-8226 leukemia; 3.35 µM in the experiment on UACC-62 melanoma; 97.4 µM with MALME-3M melanoma; 8.21 µM with HCC-2998 colon; greater than 100 µM in the experiment with LOX IMVI melanoma; greater than 100 µM with U251 CNS. Moreover, the TGI in the experiment on SK-MEL-5 melanoma was 3.39 µM; in the experiment on HCT-116 colon, greater than 31.8 µM; with SN12C renal it was greater than 91.7 µM; in the experiment on 786-0 renal, greater than 100 µM. The GI50 is less than 35.6 nM with UACC-62 melanoma; less than 47.8 nM in the experiment with MALME-3M melanoma; 39.2 nM with HCC-2998 colon; less than 10 nM in the experiment on LOX IMVI melanoma; less than 47.4 nM with SK-MEL-5 melanoma; 88.9 nM with SN12C renal.
Regarding `O=C(N/C(=C\c1ccc2c(c1)OCO2)c1nc2ccccc2[nH]1)c1ccccc1`, the TGI in the experiment with RPMI-8226 leukemia was 83.9 µM; in the experiment with UACC-62 melanoma, 56.9 µM; with MALME-3M melanoma it was greater than 89.7 µM; in the experiment on HCC-2998 colon, greater than 87.3 µM; in the experiment with LOX IMVI melanoma, greater than 100 µM; with U251 CNS, greater than 100 µM. Also, the TGI in the experiment with SK-MEL-5 melanoma is 29.9 µM; with HCT-116 colon, greater than 89 µM; with SN12C renal it was greater than 84.1 µM; with 786-0 renal, greater than 100 µM.
For `COc1ccc2sc3c(NCCCN(C)C)nc4ccccc4c3c(=O)c2c1`, the GI50 in the experiment with RPMI-8226 leukemia was 1680 nM; with UACC-62 melanoma, 1800 nM; in the experiment with MALME-3M melanoma it was 1620 nM; in the experiment on HCC-2998 colon, 1700 nM; in the experiment on LOX IMVI melanoma it was 1480 nM; in the experiment with U251 CNS it was 1530 nM. Also, the GI50 in the experiment on SK-MEL-5 melanoma was 1730 nM; in the experiment with HCT-116 colon, 1570 nM; in the experiment with SN12C renal it was 1710 nM; with 786-0 renal it was 1340 nM. Further, the TGI in the experiment on RPMI-8226 leukemia was 3.66 µM; in the experiment on UACC-62 melanoma, 3.24 µM; in the experiment with MALME-3M melanoma it was 3.18 µM; with HCC-2998 colon, 3.26 µM; in the experiment with LOX IMVI melanoma, 2.89 µM; with U251 CNS, 3.27 µM. Also, the TGI in the experiment with SK-MEL-5 melanoma was 3.12 µM; in the experiment with HCT-116 colon it was 3.01 µM; in the experiment on SN12C renal it was 3.2 µM; in the experiment on 786-0 renal it was 2.71 µM.
On to `CSc1ccc(C2OC(=O)c3ccccc32)c2ccccc12` (stereo unspecified), for which the TGI with RPMI-8226 leukemia, in the experiment with UACC-62 melanoma, in the experiment on MALME-3M melanoma, in the experiment on HCC-2998 colon, in the experiment on LOX IMVI melanoma and in the experiment on U251 CNS was greater than 100 µM throughout. Moreover, the TGI in the experiment on SK-MEL-5 melanoma, in the experiment with HCT-116 colon, in the experiment with SN12C renal and with 786-0 renal was greater than 100 µM throughout.
With `C=CCOc1cccc(/C=C2\SC(=Nc3ccc(O)cc3)NC2=O)c1`, the GI50 is 372 nM in the experiment on RPMI-8226 leukemia; 808 nM with UACC-62 melanoma; 2480 nM with MALME-3M melanoma; 1150 nM in the experiment with HCC-2998 colon; 543 nM in the experiment on LOX IMVI melanoma; 495 nM with U251 CNS. Further, the GI50 with SK-MEL-5 melanoma is 555 nM; in the experiment with HCT-116 colon it was 408 nM; with SN12C renal, 953 nM; in the experiment on 786-0 renal, 1130 nM. Also, the TGI in the experiment on RPMI-8226 leukemia stood at 3.1 µM; in the experiment with UACC-62 melanoma, 17.4 µM; in the experiment with MALME-3M melanoma it was 21.9 µM; in the experiment with HCC-2998 colon, 9.22 µM; in the experiment with LOX IMVI melanoma it was 12.7 µM; with U251 CNS, 12.9 µM. Besides, the TGI in the experiment on SK-MEL-5 melanoma amounted to 2.44 µM; in the experiment with HCT-116 colon, 5.38 µM; in the experiment on SN12C renal, 10.1 µM; in the experiment with 786-0 renal, 7.89 µM.
Consider `Cc1[nH]ccc2c1[nH]c1cc(=O)ccc12`, for which the TGI in the experiment on RPMI-8226 leukemia, with UACC-62 melanoma, with MALME-3M melanoma, in the experiment on HCC-2998 colon, with LOX IMVI melanoma and in the experiment on U251 CNS was greater than 100 µM each time. Further, the TGI in the experiment on SK-MEL-5 melanoma, in the experiment on HCT-116 colon, in the experiment on SN12C renal and in the experiment with 786-0 renal was greater than 100 µM each time.
Consider `NCCOCCOCCNc1nc(Cc2ccccc2)nc(NCCCN2CCCC2=O)n1`, for which the GI50 with RPMI-8226 leukemia, with UACC-62 melanoma, in the experiment with MALME-3M melanoma, in the experiment with HCC-2998 colon, in the experiment with LOX IMVI melanoma and in the experiment with U251 CNS was greater than 100000 nM in each case. Also, the GI50 in the experiment with SK-MEL-5 melanoma, with HCT-116 colon, in the experiment on SN12C renal and in the experiment on 786-0 renal was greater than 100000 nM throughout. Also, the TGI in the experiment on RPMI-8226 leukemia, in the experiment on UACC-62 melanoma, with MALME-3M melanoma, in the experiment with HCC-2998 colon, with LOX IMVI melanoma and in the experiment on U251 CNS was greater than 100 µM throughout. For the same compound, the TGI in the experiment on SK-MEL-5 melanoma, with HCT-116 colon, in the experiment with SN12C renal and in the experiment with 786-0 renal was greater than 100 µM in each case.
